# Tests used:
# [1] = biological target: T1, ITK (Homo sapiens, UniProt Q08881); experiment: ITK degradation HiBiT assay; format: cell-based; design: expressed in transfected cells; host or cells: Molt4 (ATCC CRL-1552), monoclonal clone 1C10, engineered to carry the HiBiT tag; conditions: 4 hrs
# T1 sequence (Q08881 1-620): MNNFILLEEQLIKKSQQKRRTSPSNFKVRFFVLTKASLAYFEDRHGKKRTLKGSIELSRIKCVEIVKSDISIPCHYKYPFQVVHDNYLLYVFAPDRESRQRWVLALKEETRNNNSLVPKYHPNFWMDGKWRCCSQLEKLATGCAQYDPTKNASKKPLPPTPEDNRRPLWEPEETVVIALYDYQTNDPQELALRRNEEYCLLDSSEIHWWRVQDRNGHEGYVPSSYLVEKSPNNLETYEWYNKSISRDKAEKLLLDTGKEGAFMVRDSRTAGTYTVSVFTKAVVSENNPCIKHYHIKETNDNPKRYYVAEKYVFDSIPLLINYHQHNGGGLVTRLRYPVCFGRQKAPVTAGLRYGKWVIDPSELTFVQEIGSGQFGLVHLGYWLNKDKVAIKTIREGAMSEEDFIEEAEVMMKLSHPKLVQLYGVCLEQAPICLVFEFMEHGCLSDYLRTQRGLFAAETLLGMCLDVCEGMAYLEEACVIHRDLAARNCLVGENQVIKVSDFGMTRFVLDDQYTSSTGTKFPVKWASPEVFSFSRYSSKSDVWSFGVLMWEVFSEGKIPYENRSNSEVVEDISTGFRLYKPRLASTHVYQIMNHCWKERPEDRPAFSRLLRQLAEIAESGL
# Method in brief: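 C-terminal HiBiT-tagged Molt4 cells (clone 1C10) treated 4 h at 32° C with an 11-point, 5-fold compound dilution series (0.5% DMSO). HiBiT lytic detection with LgBiT then luminescence read; % ITK remaining versus concentration fit by four-parameter variable-slope model to give DC50 and Dmax.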
# [2] = Mouse PK analysis (blood/plasma concentration after oral administration); format: in vivo; conditions: mouse; mice, oral, plasma
# Method in brief: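 Mice were dosed by oral gavage at 90 mg/kg with blood sampled at 1, 2 and 6 h; a second study used oral dosing with plasma taken at 6 or 24 h. Plasma levels were measured by LC/MS/MS (acetonitrile precipitation, internal-standard curve, positive ESI MRM), and Cmax, Tmax and AUClast were derived by noncompartmental analysis.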
smiles,measurement,setting,value
"Cn1c(=O)n(C2CCC(=O)NC2=O)c2cccc(N3CCC(CN4CCC5(CC4)CCN(c4ccc6cc(-c7n[nH]c8c7CCC(C)(C)C8)[nH]c6c4)C5=O)CC3)c21 (centres unmarked) [Compound 13, 3-(4-(4-((2-(2-(6,6-dimethyl-4,5,6,7-tetrahydro-1H-indazol-3-yl)-1H-indol-6-yl)-1-oxo-2,8-diazaspiro[4.5]decan-8-yl)methyl)piperidin-1-yl)-3-methyl-2-oxo-2,3-dihydro-1H-benzo[d]imidazol-1-yl)piperidine-2,6-dione]",DC50,[1]; C-terminal HiBiT-tagged Molt4 cells,2.4 nM
same,Dmax,"[1]; MOLT-4, C-terminal HiBiT-tagged Molt4 cells",90%
same,AUC(0-t),[2],0.927 µM·h
same,Cmax,[2],251 nM
same,Tmax,[2],4 h
